Experiment [1] relates to Trichophyton mentagrophytes (T. mentagrophytes) ATCC18748. Nature of the experiment: Antifungal activity test against dermatophytes (MIC). In kind it is cell-based. The following applies: 80% growth inhibiting concentration, RPMI1640/MOPS, 28° C., 3 days, WST8; for MIC: Trichophyton mentagrophytes, 72 h. On the procedure:
(§1) Measurement of the anti-trichophyton activity of the compound of the formula (I) comprised in the patch of the present invention was carried out by the following method. The compound to be evaluated was used by dissolving in dimethyl sulfoxide (DMSO). As a medium for the test, RPMI1640 medium containing 0.165M of 3-morpholinopropanesulfonic acid (MOPS) was used. As fungi to be tested, Trichophyton mentagrophytes (T. mentagrophytes) ATCC18748 or Trichophyton rubrum (T. rubrum) ATCC10218 was used. The testing fungal strain was apportioned to 100 μl with a concentration of 1×10^4 conidia/ml, mixed with a compound to be evaluated on a 96-well half area plate so that the DMSO concentration became 1%, and cultured at a cultivation temperature of 28° C. for 3 days (Trichophyton mentagrophytes) or 4 days (Trichophyton rubrum). Thereafter, 5 μl of Cell Counting Kit 8 (WST8) was added thereto, and absorbances at 450 nm and 595 nm were measured to use these as background values. Thereafter, these were cultivated at 28° C. for 5 hours (Trichophyton mentagrophytes) or overnight (Trichophyton rubrum) to cause a color, and absorbances at 450 nm and 595 nm were measured again. A growth inhibiting rate was calculated from the difference to the background values, and a 80% growth inhibiting concentration was made an MIC value (μg/ml).

Experiment [2] has as its system Trichophyton rubrum (T. rubrum) ATCC10218. Described as above. In kind it is cell-based. The following applies: 80% growth inhibiting concentration, RPMI1640/MOPS, 28° C., 4 days, WST8; for MIC: Trichophyton rubrum, 96 h. On the procedure: as §1

Structures can show the parent of a compound that is named as a salt.

What is called MIC is the smallest concentration in the dilution series that meets the test's criterion for growth inhibition. With `CCC(C)(C)c1ccc(CC(C)CN2C[C@@H](C)O[C@@H](C)C2)cc1` (stereo partly shown) [Amorolfine hydrochloride, reference compound], the MIC in experiment [1] was at most 1 µg/mL; in experiment [2], at most 2 µg/mL.

`CN(C/C=C/C#CC(C)(C)C)Cc1cccc2ccccc12` [Terbinafine hydrochloride, reference compound]: the MIC in experiment [1] was at most 1 µg/mL; in experiment [2], at most 2 µg/mL.

Take `Cc1cc(C)n(-c2ccccc2O)n1` [compound 1]: in experiment [1], the “MIC (T. mentagrophytes)” value is recorded as “B (2 to 8 μg/ml)”. Further, the “MIC (T. rubrum)” value in experiment [2] was “B (4-16 μg/ml)”.

On to `Cc1cc(C(F)(F)F)nn1-c1ccccc1O` [compound 5], for which the “MIC (T. mentagrophytes)” value in experiment [1] was “C (16 to 32 μg/ml)”. The “MIC (T. rubrum)” value in experiment [2] was “D (>32-64 μg/ml)”.

As to `Oc1ccccc1-n1nc(C(F)(F)F)cc1C(F)(F)F` [compound 6], the “MIC (T. mentagrophytes)” value in experiment [1] was “C (16 to 32 μg/ml)”. For the same compound, the “MIC (T. rubrum)” value in experiment [2] is recorded as “E (>64 μg/ml)”.

As for `Cc1ccn(-c2ccccc2O)n1` [compound 7], in experiment [1], the “MIC (T. mentagrophytes)” value was “C (16 to 32 μg/ml)”. For the same compound, the “MIC (T. rubrum)” value in experiment [2] is given as “E (>64 μg/ml)”.

Consider `Cc1ccnn1-c1ccccc1O` [compound 8], for which the “MIC (T. mentagrophytes)” value in experiment [1] is listed as “C (16 to 32 μg/ml)”. Further, the “MIC (T. rubrum)” value in experiment [2] is reported as “E (>64 μg/ml)”.

On to `Cc1nn(-c2ccccc2O)c(C)c1C` [compound 9], for which the “MIC (T. mentagrophytes)” value in experiment [1] is “A (≤1 μg/ml)”. The “MIC (T. rubrum)” value in experiment [2] is “A (≤2 μg/ml)”.

Take `CC(C)(C)c1cc(N)n(-c2ccccc2O)n1` [compound 10]: the “MIC (T. mentagrophytes)” value in experiment [1] was “D (Inhibited 50% or more and less than 80% with 32 μg/ml)”. Moreover, the “MIC (T. rubrum)” value in experiment [2] is given as “E (>64 μg/ml)”.

Take `Cc1cc(C)n(-c2cc(Cl)ccc2O)n1` [compound 11]: the “MIC (T. mentagrophytes)” value in experiment [1] is “C (16 to 32 μg/ml)”. Moreover, the “MIC (T. rubrum)” value in experiment [2] is “D (>32-64 μg/ml)”.

Turning to `Cc1cc(C)n(-c2cccc(Cl)c2O)n1` [compound 12], in experiment [1], the “MIC (T. mentagrophytes)” value is on record as “C (16 to 32 μg/ml)”. In addition, the “MIC (T. rubrum)” value in experiment [2] is “E (>64 μg/ml)”.

For the compound `Cc1nn(-c2ccccc2O)c(C)c1Cl` [compound 13], in experiment [1], the “MIC (T. mentagrophytes)” value is reported as “A (≤1 μg/ml)”. In experiment [2], the “MIC (T. rubrum)” value is reported as “B (4-16 μg/ml)”.

For the compound `CCc1cc(CC)n(-c2ccccc2O)n1` [compound 14], the “MIC (T. mentagrophytes)” value in experiment [1] is “B (2 to 8 μg/ml)”. For the same compound, the “MIC (T. rubrum)” value in experiment [2] is recorded as “B (4-16 μg/ml)”.

As for `Cc1cc(C)n(-c2cccc(O)c2O)n1` [compound 15], the “MIC (T. mentagrophytes)” value in experiment [1] was “C (16 to 32 μg/ml)”. Also, the “MIC (T. rubrum)” value in experiment [2] is given as “C (16-32 μg/ml)”.

For the compound `Cc1cc(C)n(-c2cc(O)ccc2O)n1` [compound 16], in experiment [1], the “MIC (T. mentagrophytes)” value is reported as “C (16 to 32 μg/ml)”. Besides, in experiment [2], the “MIC (T. rubrum)” value is “E (>64 μg/ml)”.

For `CCc1c(C)nn(-c2ccccc2O)c1C` [compound 17], the “MIC (T. mentagrophytes)” value in experiment [1] is given as “A (≤1 μg/ml)”. Further, the “MIC (T. rubrum)” value in experiment [2] is reported as “A (≤2 μg/ml)”.

For the compound `Cc1nn(-c2ccc(F)cc2O)c(C)c1C` [compound 18], the “MIC (T. mentagrophytes)” value in experiment [1] was “B (2 to 8 μg/ml)”. In experiment [2], the “MIC (T. rubrum)” value is “B (4-16 μg/ml)”.

On to `Cc1nn(-c2cc(O)ccc2O)c(C)c1Cl` [compound 19], for which the “MIC (T. mentagrophytes)” value in experiment [1] is given as “C (16 to 32 μg/ml)”. Moreover, the “MIC (T. rubrum)” value in experiment [2] is reported as “C (16-32 μg/ml)”.

On to `Cc1nn(-c2cc(F)ccc2O)c(C)c1C` [compound 20], for which the “MIC (T. mentagrophytes)” value in experiment [1] was “C (16 to 32 μg/ml)”. Moreover, in experiment [2], the “MIC (T. rubrum)” value was “D (>32-64 μg/ml)”.

With `Cc1nn(-c2ccc(F)cc2O)c(C)c1Cl` [compound 21], in experiment [1], the “MIC (T. mentagrophytes)” value was “A (≤1 μg/ml)”. Further, in experiment [2], the “MIC (T. rubrum)” value was “B (4-16 μg/ml)”.

On to `CCOC(=O)c1c(C)nn(-c2ccccc2O)c1C` [compound 22], for which, in experiment [1], the “MIC (T. mentagrophytes)” value is on record as “C (16 to 32 μg/ml)”. The “MIC (T. rubrum)” value in experiment [2] is reported as “D (>32-64 μg/ml)”.

As for `COC(=O)CCc1c(C)nn(-c2ccccc2O)c1C` [compound 23], the “MIC (T. mentagrophytes)” value in experiment [1] is on record as “C (16 to 32 μg/ml)”. Moreover, the “MIC (T. rubrum)” value in experiment [2] is “D (>32-64 μg/ml)”.

With `CCCCc1c(C)nn(-c2ccccc2O)c1C` [compound 24], the “MIC (T. mentagrophytes)” value in experiment [1] is reported as “A (≤1 μg/ml)”. Besides, the “MIC (T. rubrum)” value in experiment [2] was “C (16-32 μg/ml)”.

As for `Cc1cc(C)n(-c2ccc(F)cc2O)n1` [compound 25], the “MIC (T. mentagrophytes)” value in experiment [1] was “B (2 to 8 μg/ml)”. Also, the “MIC (T. rubrum)” value in experiment [2] is recorded as “B (4-16 μg/ml)”.

As to `Cc1cc(C)n(-c2ccc(Cl)cc2O)n1` [compound 26], in experiment [1], the “MIC (T. mentagrophytes)” value was “A (≤1 μg/ml)”. Also, the “MIC (T. rubrum)” value in experiment [2] is given as “A (≤2 μg/ml)”.

Consider `Cc1cc(C)n(-c2ccc([N+](=O)[O-])cc2O)n1` [compound 28], for which the “MIC (T. mentagrophytes)” value in experiment [1] is reported as “B (2 to 8 μg/ml)”. Also, the “MIC (T. rubrum)” value in experiment [2] is reported as “C (16-32 μg/ml)”.

Regarding `Cc1nn(-c2ccc(Cl)cc2O)c(C)c1C` [compound 30], in experiment [1], the “MIC (T. mentagrophytes)” value is “A (≤1 μg/ml)”. Further, the “MIC (T. rubrum)” value in experiment [2] is recorded as “A (≤2 μg/ml)”.

Take `Cc1cc(C)n(-c2ccc(N)cc2O)n1` [compound 31]: the “MIC (T. mentagrophytes)” value in experiment [1] is “B (2 to 8 μg/ml)”. Besides, the “MIC (T. rubrum)” value in experiment [2] is recorded as “B (4-16 μg/ml)”.

For `Cc1nn(-c2ccc([N+](=O)[O-])cc2O)c(C)c1C` [compound 32], the “MIC (T. mentagrophytes)” value in experiment [1] is given as “B (2 to 8 μg/ml)”. Also, the “MIC (T. rubrum)” value in experiment [2] was “B (4-16 μg/ml)”.

Consider `Cc1cc(C)n(-c2ccc(O)cc2O)n1` [compound 33], for which the “MIC (T. mentagrophytes)” value in experiment [1] is listed as “B (2 to 8 μg/ml)”. The “MIC (T. rubrum)” value in experiment [2] is on record as “A (≤2 μg/ml)”.

Regarding `Cc1nn(-c2ccc(N)cc2O)c(C)c1C` [compound 34], the “MIC (T. mentagrophytes)” value in experiment [1] is listed as “B (2 to 8 μg/ml)”. Further, the “MIC (T. rubrum)” value in experiment [2] was “B (4-16 μg/ml)”.

For the compound `COC(=O)c1ccc(-n2nc(C)cc2C)c(O)c1` [compound 35], the “MIC (T. mentagrophytes)” value in experiment [1] was “C (16 to 32 μg/ml)”. Further, the “MIC (T. rubrum)” value in experiment [2] is recorded as “C (16-32 μg/ml)”.

Take `Cc1cc(C)n(-c2c(N)cccc2O)n1` [compound 36]: the “MIC (T. mentagrophytes)” value in experiment [1] is “E (Inhibited less than 50% with 32 μg/ml)”. Also, the “MIC (T. rubrum)” value in experiment [2] is on record as “D (>32-64 μg/ml)”.

For the compound `Cc1cc(C)n(-c2ccc(C(=O)O)cc2O)n1` [compound 37], the “MIC (T. mentagrophytes)” value in experiment [1] was “B (2 to 8 μg/ml)”. In addition, in experiment [2], the “MIC (T. rubrum)” value is on record as “B (4-16 μg/ml)”.

On to `Cc1cc(C)n(-c2ccc(C(=O)N(C)C)cc2O)n1` [compound 38], for which the “MIC (T. mentagrophytes)” value in experiment [1] is “C (16 to 32 μg/ml)”. Also, the “MIC (T. rubrum)” value in experiment [2] was “B (4-16 μg/ml)”.

Regarding `Cc1cc(C)n(-c2ccc(C(N)=O)cc2O)n1` [compound 39], the “MIC (T. mentagrophytes)” value in experiment [1] is recorded as “C (16 to 32 μg/ml)”. Moreover, in experiment [2], the “MIC (T. rubrum)” value is “C (16-32 μg/ml)”.

For `Cc1nn(-c2ccc(C(=O)O)cc2O)c(C)c1C` [compound 40], the “MIC (T. mentagrophytes)” value in experiment [1] is listed as “E (Inhibited less than 50% with 32 μg/ml)”. The “MIC (T. rubrum)” value in experiment [2] is listed as “D (>32-64 μg/ml)”.

For `Cc1nn(-c2ccc(C(N)=O)cc2O)c(C)c1C` [compound 41], the “MIC (T. mentagrophytes)” value in experiment [1] is “D (Inhibited 50% or more and less than 80% with 32 μg/ml)”. In addition, the “MIC (T. rubrum)” value in experiment [2] is recorded as “D (>32-64 μg/ml)”.

As for `Cc1nn(-c2ccc(C(N)=O)cc2O)c(C)c1Cl` [compound 42], the “MIC (T. mentagrophytes)” value in experiment [1] is recorded as “C (16 to 32 μg/ml)”. For the same compound, in experiment [2], the “MIC (T. rubrum)” value was “D (>32-64 μg/ml)”.

Take `Cc1cc(C)n(-c2c(O)cccc2O)n1` [compound 43]: the “MIC (T. mentagrophytes)” value in experiment [1] was “E (Inhibited less than 50% with 32 μg/ml)”. For the same compound, in experiment [2], the “MIC (T. rubrum)” value is listed as “D (>32-64 μg/ml)”.

Consider `Cc1ccc(-n2nc(C)cc2C)c(O)c1` [compound 44], for which the “MIC (T. mentagrophytes)” value in experiment [1] is recorded as “A (≤1 μg/ml)”. Besides, in experiment [2], the “MIC (T. rubrum)” value was “A (≤2 μg/ml)”.

Values taken from patent US10123978B2, “Patch for treating dermatophytosis” (MEIJI SEIKA PHARMA CO., LTD., priority 2012, dated 2018).
